Key:
Assay in all cases: In vitro antibacterial evaluation: minimum inhibitory concentration (MIC), broth dilution method
Type in all cases: cell-based
Enterococcus sp. = tested on: Enterococcus sp.
Summary of the method: (§1)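 MIC read as lowest drug level preventing visible growth. Organisms at 5×10^5 CFU/mL were exposed to a 64-0.06 μg/mL dilution series in Muller-Hinton II […] following NCCLS broth dilution standard M7-A2.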

Staphylococcus sp. = settings: broth dilution, 18 hours at 35° C.
Summary of the method: as §1

Streptococcus sp. = tested on: Streptococcus sp.
Summary of the method: as §1

Escherichia coli = tested on: Escherichia coli
Summary of the method: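 Broth dilution per NCCLS M7-A2 in Muller-Hinton II […], inoculum 5×10^5 CFU/mL, antibiotic tested over 64-0.06 μg/mL. MIC is taken as the lowest concentration that inhibits growth. Panel includes recent clinical isolates resistant to methicillin, penicillin and/or vancomycin.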

Di-N-(4-tert-butylbenzyl)-cyclo[glycyl-β-methylphenylalanyl-O-(4-O-hexopyranosylhexopyranosyl)tyrosyl-3-(2-iminoimidazolidin-4-yl)seryl-3-(3-hexopyranosyl-2-iminoimidazolidin-4-yl)serylseryl] [Example 60a]
MIC Enterococcus avium (GC 4558) (Enterococcus sp.; Enterococcus avium (GC 4558), broth dilution, 18 hours at 35° C.): 128 µg/mL
MIC Enterococcus faecalis (ATCC 29212) (Enterococcus sp.; Enterococcus faecalis (ATCC 29212), broth dilution, 18 hours at 35° C.): >128 µg/mL
MIC Enterococcus faecalis (GC 2242) (Enterococcus sp.; Enterococcus faecalis (GC 2242), broth dilution, 18 hours at 35° C.): >128 µg/mL
MIC Enterococcus faecalis (GC 2691) (Enterococcus sp.; Enterococcus faecalis (GC 2691), broth dilution, 18 hours at 35° C.): >128 µg/mL
MIC Enterococcus faecalis (GC 3059) (Enterococcus sp.; Enterococcus faecalis (GC 3059), broth dilution, 18 hours at 35° C.): >128 µg/mL
MIC Enterococcus faecalis (GC 4552) (Enterococcus sp.; Enterococcus faecalis (GC 4552), broth dilution, 18 hours at 35° C.): >128 µg/mL
MIC Enterococcus faecalis (GC 4553) (Enterococcus sp.; Enterococcus faecalis (GC 4553), broth dilution, 18 hours at 35° C.): 128 µg/mL
MIC Enterococcus faecalis (GC 4554) (Enterococcus sp.; Enterococcus faecalis (GC 4554), broth dilution, 18 hours at 35° C.): >128 µg/mL
MIC Enterococcus faecalis (GC 6189) (Enterococcus sp.; Enterococcus faecalis (GC 6189), broth dilution, 18 hours at 35° C.): >128 µg/mL
MIC Enterococcus faecium (GC 2243) (Enterococcus sp.; Enterococcus faecium (GC 2243), broth dilution, 18 hours at 35° C.): >128 µg/mL
MIC Enterococcus faecium (GC 4556) (Enterococcus sp.; Enterococcus faecium (GC 4556), broth dilution, 18 hours at 35° C.): >128 µg/mL
MIC Enterococcus faecium (GC 4557) (Enterococcus sp.; Enterococcus faecium (GC 4557), broth dilution, 18 hours at 35° C.): 128 µg/mL
MIC Enterococcus faecalis (ATCC 29212) (Enterococcus sp.; strain ATCC 29212): >128 µg/mL
MIC Enterococcus faecalis (GC 2242) (Enterococcus sp.; strain GC 2242): >128 µg/mL
MIC Enterococcus faecium (GC 2243) (Enterococcus sp.; strain GC 2243): >128 µg/mL
MIC Enterococcus faecalis (GC 2691) (Enterococcus sp.; strain GC 2691): >128 µg/mL
MIC Enterococcus faecalis (GC 3059) (Enterococcus sp.; strain GC 3059): >128 µg/mL
MIC Enterococcus faecalis (GC 4552) (Enterococcus sp.; strain GC 4552): >128 µg/mL
MIC Enterococcus faecalis (GC 4553) (Enterococcus sp.; strain GC 4553): 128 µg/mL
MIC Enterococcus faecalis (GC 4554) (Enterococcus sp.; strain GC 4554): >128 µg/mL
MIC Enterococcus faecium (GC 4556) (Enterococcus sp.; strain GC 4556): >128 µg/mL
MIC Enterococcus faecium (GC 4557) (Enterococcus sp.; strain GC 4557): 128 µg/mL
MIC Enterococcus avium (GC 4558) (Enterococcus sp.; strain GC 4558): 128 µg/mL
MIC Enterococcus faecalis (GC 6189) (Enterococcus sp.; strain GC 6189): >128 µg/mL
MIC Coagulase Negative Staphylococcus (GC 4547) (Staphylococcus sp.): >128 µg/mL
MIC Coagulase Negative Staphylococcus (GC 4548) (Staphylococcus sp.): >128 µg/mL
MIC Coagulase Negative Staphylococcus (GC 4549) (Staphylococcus sp.): >128 µg/mL
MIC Coagulase Negative Staphylococcus (GC 4551) (Staphylococcus sp.): >128 µg/mL
MIC Coagulase Negative Staphylococcus (GC 6257) (Staphylococcus sp.): >128 µg/mL
MIC Staphylococcus aureus (ATCC 29213) (Staphylococcus sp.): >128 µg/mL
MIC Staphylococcus aureus (GC 1131) (Staphylococcus sp.): >128 µg/mL
MIC Staphylococcus aureus (GC 3051) (Staphylococcus sp.): >128 µg/mL
MIC Staphylococcus aureus (GC 3053) (Staphylococcus sp.): >128 µg/mL
MIC Staphylococcus aureus (GC 4541) (Staphylococcus sp.): >128 µg/mL
MIC Staphylococcus aureus (GC 4542) (Staphylococcus sp.): >128 µg/mL
MIC Staphylococcus aureus (GC 4544) (Staphylococcus sp.): >128 µg/mL
MIC Staphylococcus aureus (GC 4545) (Staphylococcus sp.): >128 µg/mL
MIC Staphylococcus aureus SMITH (GC 4543) (Staphylococcus sp.): >128 µg/mL
MIC Staphylococcus haemolyticus (GC 4546) (Staphylococcus sp.): >128 µg/mL
MIC Staphylococcus aureus (ATCC 29213) (Staphylococcus sp.; strain ATCC 29213): >128 µg/mL
MIC Staphylococcus aureus (GC 1131) (Staphylococcus sp.; strain GC 1131): >128 µg/mL
MIC Staphylococcus aureus (GC 3051) (Staphylococcus sp.; strain GC 3051): >128 µg/mL
MIC Staphylococcus aureus (GC 3053) (Staphylococcus sp.; strain GC 3053): >128 µg/mL
MIC Staphylococcus aureus (GC 4541) (Staphylococcus sp.; strain GC 4541): >128 µg/mL
MIC Staphylococcus aureus (GC 4542) (Staphylococcus sp.; strain GC 4542): >128 µg/mL
MIC Staphylococcus aureus (GC 4544) (Staphylococcus sp.; strain GC 4544): >128 µg/mL
MIC Staphylococcus aureus (GC 4545) (Staphylococcus sp.; strain GC 4545): >128 µg/mL
MIC Staphylococcus haemolyticus (GC 4546) (Staphylococcus sp.; strain GC 4546): >128 µg/mL
MIC Coagulase Negative Staphylococcus (GC 4547) (Staphylococcus sp.; strain GC 4547): >128 µg/mL
MIC Coagulase Negative Staphylococcus (GC 4548) (Staphylococcus sp.; strain GC 4548): >128 µg/mL
MIC Coagulase Negative Staphylococcus (GC 4549) (Staphylococcus sp.; strain GC 4549): >128 µg/mL
MIC Coagulase Negative Staphylococcus (GC 4551) (Staphylococcus sp.; strain GC 4551): >128 µg/mL
MIC Coagulase Negative Staphylococcus (GC 6257) (Staphylococcus sp.; strain GC 6257): >128 µg/mL
MIC Staphylococcus aureus-SMITH (GC 4543) (Staphylococcus sp.; strain SMITH GC 4543): >128 µg/mL
MIC Streptococcus agalactiae (GC 4564) (Streptococcus sp.; Streptococcus agalactiae (GC 4564), broth dilution, 18 hours at 35° C.): >128 µg/mL
MIC Streptococcus pneumoniae (ATCC 6301) (Streptococcus sp.; Streptococcus pneumoniae (ATCC 6301), broth dilution, 18 hours at 35° C.): >128 µg/mL
MIC Streptococcus pneumoniae (GC 1894) (Streptococcus sp.; Streptococcus pneumoniae (GC 1894), broth dilution, 18 hours at 35° C.): 64 µg/mL
MIC Streptococcus pneumoniae (GC 4565) (Streptococcus sp.; Streptococcus pneumoniae (GC 4565), broth dilution, 18 hours at 35° C.): 128 µg/mL
MIC Streptococcus pyogenes (GC 4563) (Streptococcus sp.; Streptococcus pyogenes (GC 4563), broth dilution, 18 hours at 35° C.): >128 µg/mL
MIC Streptococcus pneumoniae (ATCC 6301) (Streptococcus sp.; strain ATCC 6301): >128 µg/mL
MIC Streptococcus pneumoniae (GC 1894) (Streptococcus sp.; strain GC 1894): 64 µg/mL
MIC Streptococcus pyogenes (GC 4563) (Streptococcus sp.; strain GC 4563): >128 µg/mL
MIC Streptococcus agalactiae (GC 4564) (Streptococcus sp.; strain GC 4564): >128 µg/mL
MIC Streptococcus pneumoniae (GC 4565) (Streptococcus sp.; strain GC 4565): 128 µg/mL
MIC Escherichia coli (ATCC 25922) (Escherichia coli; strain ATCC 25922): >128 µg/mL
MIC Escherichia coli (GC 4559) (Escherichia coli; strain GC 4559): >128 µg/mL
MIC Escherichia coli (GC 4560) (Escherichia coli; strain GC 4560): 16 µg/mL
